In US20020142436A1, “Human adenylate cyclase and use therefor” (priority 1995, published 2002):
pEC50: −log10 of the molar value. Square brackets hold non-standard residues; d marks the D form. Ends that are not written are not given here. Peptide text beside a SMILES is read from it. ξ: configuration not given here. ξNMeBmt = C/C=C/C[C@@H](C)[C@@H](O)C(NC)C(=O)O; NMeL = CN[C@@H](CC(C)C)C(=O)O; NMeV = CN[C@H](C(=O)O)C(C)C; Abu = CC[C@H](N)C(=O)O; Sar = CNCC(=O)O

Experiments:
AtT20 cells [1] = assay: CRF-induced cAMP accumulation in AtT20 cells; type: cell-based, mouse; settings: for cAMP response to CRF after lowering intracellular free Ca2+: EGTA 2 mmol/l, nimodipine 1 μmol/l, BAPTA-AM 20 μmol/l in preincubation, IBMX 0.5 mmol/l; for CRF-induced cAMP formation: 1 μmol/l FK506, 10 nmol/l CRF, calcium-depleted cells
Method: Experiments for cAMP were all carried out in Hanks balanced salt solution containing 2 mM CaCl2 and 1 mM MgSO4 buffered with 25 mM HEPES pH 7.4 and supplemented with 0.25% (w/v) of bovine serum albumin. The cells were preincubated in serum free medium for 1 hour, after which blockers of phosphosdiesterase (isobutylmethylxanthine 0.5 mM (IBMX) and/or rolipram 0.1 mM) along with various other treatments were applied for 30 minutes at 37° C. Subsequently the cells were cooled to 22° C. for 5 minutes in a water bath and agonists were added for 10 minutes. The reaction was stopped by the addition of 0.2 mol/l HCl to achieve a final concentration of 0.1 mol/l (Brooker et al, (1979) Adv. in Cyclic Nucl. Res. Vol. 10, G. Brooker, P. Greengard and G. A. Robinson, Raven Press, New York, 2-34).
In some experiments cells were preincubated for 30 minutes in medium containing 2 mmol/l EGTA and no added Ca^2+, supplemented with 5 μmol/l A23187 and 2.5 μmol/l nifedipine in order to deplete rapidly mobilized cellular stores of Ca^2+. […] The rationale for this pretreatment is that calcineurin reportedly influences L-channel activity (Lai et al, (1993) J. Neurochem. 61:1333-1339; and Armstrong et al, (1987) Proc. Natl. Acad. Sci. U.S.A. 84:2518-2522), whereas the treatment regimen used here would make Ca^2+ entry independent of this regulation.
These compounds were made up in ethanol at 10^−3 mol/l and diluted with the incubation medium to the desired final concentrations. In some cases cells were preincubated with L685,818 the structural analogue of FK506 that binds to FKBP-12 and inhibits prolyl-isomerase activity but is devoid of immunosuppressant activity (Dumont et al, (1992) J. Exp. Med. 176:751-760) for 10 minutes before the addition of FK506 for 30 minutes at 37° C.

AtT20 cells [2] = assay: forskolin-evoked cAMP accumulation in AtT20 cells; type: cell-based, mouse
Method: The cells were preincubated in serum free medium for 1 hour, after which blockers of phosphosdiesterase (isobutylmethylxanthine 0.5 mM (IBMX) and/or rolipram 0.1 mM) along with various other treatments were applied for 30 minutes at 37° C. Subsequently the cells were cooled to 22° C. for 5 minutes in a water bath and agonists were added for 10 minutes. […] Res. Vol. 10, G. Brooker, P. Greengard and G. A. Robinson, Raven Press, New York, 2-34).

AtT20 cells [3] = assay: cAMP accumulation induced by β-adrenergic stimulation (isoproterenol) in AtT20 cells; type: cell-based, mouse
[4] = system: HEK293 cells transfected with AC; assay: cAMP in HEK293 cells transiently transfected with AC; type: cell-based, human; settings: FK506 2 μmol/l, L-685,818 100 μmol/l; 1 mmol/l IBMX, 0.1 mmol/l rolipram
AtT20 cells [5] = assay: ACTH release by AtT20 cells; type: cell-based, mouse
[6] = system: T1, GST fusion protein of the FKBP12 like domain (residues 594-611) of mouse AC
T1 sequence: IDDSRESSGPRGQGTASP

[7] = isoproterenol 2 nmol/l, pretreatment FK506 1 μmol/l or BAPTA/AM 20 μmol/l, IBMX 0.5 mmol/l, rolipram 0.1 mmol/l
[8] = isoproterenol 10 nmol/l, pretreatment FK506 1 μmol/l or BAPTA/AM 20 μmol/l, IBMX 0.5 mmol/l, rolipram 0.1 mmol/l
[9] = isoproterenol 1000 nmol/l, pretreatment FK506 1 μmol/l or BAPTA/AM 20 μmol/l, IBMX 0.5 mmol/l, rolipram 0.1 mmol/l

CNc1ccc2oc(C[C@H]3O[C@@]4(CC[C@H]3C)O[C@H]([C@H](C)C(=O)c3ccc[nH]3)[C@H](C)C[C@H]4C)nc2c1C(=O)O [A23187]
cAMP response to CRF after lowering intracellular free Ca2+ (AtT20 cells [1]): markedly increased the cAMP response to CRF

CC(=O)OCOC(=O)CN(CC(=O)OCOC(C)=O)c1ccccc1OCCOc1ccccc1N(CC(=O)OCOC(C)=O)CC(=O)OCOC(C)=O [BAPTA-AM, [1,2-bis-(o-Aninophenoxy)-ethane-N,N,N′,N′-tetraacetic acid tetra-(acetoxymethyl)-ester]]
cAMP response to CRF after lowering intracellular free Ca2+ (AtT20 cells [1]): markedly increased the cAMP response to CRF
enhancement of forskolin-evoked cAMP accumulation (AtT20 cells [2]; cells loaded with BAPTA-AM): 15%
isoproterenol induced cAMP formation (AtT20 cells [3]): enhanced
cAMP accumulation (AtT20 cells [3]; isoproterenol 0.4 nmol/l, pretreatment FK506 1 μmol/l or BAPTA/AM 20 μmol/l, IBMX 0.5 mmol/l, rolipram 0.1 mmol/l): 0.96 ± 0.06
cAMP accumulation (AtT20 cells [3]; [7]): 3.6 ± 0.6
cAMP accumulation (AtT20 cells [3]; [8]): 11.4 ± 0.9
cAMP accumulation (AtT20 cells [3]; isoproterenol 100 nmol/l, pretreatment FK506 1 μmol/l or BAPTA/AM 20 μmol/l, IBMX 0.5 mmol/l, rolipram 0.1 mmol/l): 35.5 ± 3.4
cAMP accumulation (AtT20 cells [3]; [9]): 46.9 ± 9

O=C(O)CN(CCOCCOCCN(CC(=O)O)CC(=O)O)CC(=O)O [EGTA]
cAMP response to CRF after lowering intracellular free Ca2+ (AtT20 cells [1]): markedly increased the cAMP response to CRF

C=CC[C@@H]1/C=C(\C)C[C@H](C)C[C@H](OC)[C@H]2O[C@@](O)(C(=O)C(=O)N3CCCC[C@H]3C(=O)O[C@H](/C(C)=C/[C@@H]3CC[C@@H](O)[C@H](OC)C3)[C@H](C)[C@@H](O)CC1=O)[C@H](C)C[C@@H]2OC [FK506]
pEC50 (AtT20 cells [1]; Mus musculus, AtT20, read-out: apparent EC50 to augment cAMP accumulation induced by CRF): ~8.00
CRF-induced cAMP formation (AtT20 cells [1]; extracellular free Ca2+ 0 mmol/l, 0.5 mmol/l IBMX): 10.3 ± 0.10 pmol/well
CRF-induced cAMP formation (AtT20 cells [1]; extracellular free Ca2+ 0.5 mmol/l, 0.5 mmol/l IBMX): 10.0 ± 0.11 pmol/well
CRF-induced cAMP formation (AtT20 cells [1]; extracellular free Ca2+ 1.0 mmol/l, 0.5 mmol/l IBMX): 10.4 ± 0.10 pmol/well
CRF-induced cAMP formation (AtT20 cells [1]; extracellular free Ca2+ 1.5 mmol/l, 0.5 mmol/l IBMX): 11.3 ± 0.13 pmol/well
CRF-induced cAMP formation (AtT20 cells [1]; extracellular free Ca2+ 2.0 mmol/l, 0.5 mmol/l IBMX): 9.5 ± 0.11 pmol/well
unstimulated cAMP levels [4]: 3 fold
cAMP accumulation evoked by forskolin (AtT20 cells [2]; 10 or 30 μM forskolin): no significant effect
cAMP accumulation (AtT20 cells [3]; [7]): 3.3 ± 0.7
cAMP accumulation (AtT20 cells [3]; [8]): 15.3 ± 2.5
cAMP accumulation (AtT20 cells [3]; [9]): 45.3 ± 9
pEC50 (AtT20 cells [5]; Mus musculus, AtT20, read-out: apparent EC50 to stimulate ACTH release): ~8.00

CC(C)NCC(O)c1ccc(O)c(O)c1 (centres unmarked) [Isoproterenol]
cAMP accumulation (AtT20 cells [3]; isoproterenol 0.4 nmol/l, no pretreatment): 0.7 ± 0.04
cAMP accumulation (AtT20 cells [3]; isoproterenol 2 nmol/l, no pretreatment): 2.0 ± 0.08
cAMP accumulation (AtT20 cells [3]; isoproterenol 10 nmol/l, no pretreatment): 9.5 ± 0.33
cAMP accumulation (AtT20 cells [3]; isoproterenol 100 nmol/l, no pretreatment): 19.5 ± .5
cAMP accumulation (AtT20 cells [3]; isoproterenol 1000 nmol/l, no pretreatment): 32.1 ± 0.5

C/C=C/C[C@@H](C)[C@@H](O)C1C(=O)N[C@@H](CC)C(=O)N(C)CC(=O)N(C)[C@@H](C(C)C)C(=O)N[C@@H](C(C)C)C(=O)N(C)[C@@H](CC(C)C)C(=O)N[C@@H](C)C(=O)N[C@H](C)C(=O)N(C)[C@@H](CC(C)C)C(=O)N(C)[C@@H](CC(C)C)C(=O)N(C)[C@@H](C(C)C)C(=O)N1C (some centres unmarked) [MeVal^4-cyclosporin A] (cyclo(A[dA][NMeL][NMeL][NMeV][ξNMeBmt][Abu][Sar][NMeV]V[NMeL]))
CRF-induced cAMP production (AtT20 cells [1]; 10 nmol/l CRF, 0.5 mmol/l IBMX, drug preincubated 30 minutes): enhanced CRF-induced cAMP production in a concentration dependent manner

CRF: hypothalamic neuropeptide corticotropin-releasing factor (SEEPPISLDLTFHLLREVLEMARAEQLAQQAHSNRKLMEII; ends and bridges not checked; UniProt P06850 154-194, looked up)
cAMP level in the presence of CRF (AtT20 cells [1]; 10 nmol/l CRF (FIG. 3A)): 12 pmol/well*10minutes
increment of cAMP caused by CRF (AtT20 cells [1]; 10 nmol/l CRF, 0.5 mmol/l isobutylmethylxanthine (FIG. 1)): 6.1 pmol/well
CRF-stimulated ACTH release (AtT20 cells [5]; FIG. 7A, value taken as 100%): 22±1 fmol/well*30 minutes

cAMP dependent protein kinase
phosphorylation of the cyclase portion of the GST fusion protein [6]: can be phosphorylated by cAMP dependent protein kinase

calcineurin (protein phosphatase 2B), as used on the GST fusion protein
dephosphorylation of the cyclase portion of the GST fusion protein [6]: dephosphorylated in a calcium dependent manner by calcineurin

pertussis toxin
suppression of CRF-induced cAMP formation by extracellular Ca2+ (AtT20 cells [1]; Ca2+-depleted cells, pertussis toxin treatment): had no effect on the suppression of CRF-induced cAMP formation by extracelluar Ca^2+
inhibitory G-protein function (somatostatin-mediated inhibition of cAMP formation) (AtT20 cells [1]; pertussis toxin 1 μg/ml): strongly suppressed inhibitory G-protein function
